Common to all, as to assay type: functional
The test system of assay [1] is Pseudomonas aeruginosa. The assay can be described thus: Compound was evaluated for antibacterial activity against Pseudomonas aeruginosa 1771.
Assay [2] concerns Staphylococcus aureus. The assay can be described thus: Compound was evaluated for antibacterial activity against Staphylococcus aureus Smith.
The next assay relates to Enterobacter cloacae. The assay can be described thus: Compound was evaluated for antibacterial activity against Enterobacter cloacae P99.
The test system of assay [3] is Pseudomonas aeruginosa. Description: Compound was evaluated for antibacterial activity against Pseudomonas aeruginosa C-1198.
A further assay concerns Streptococcus pneumoniae. Description: Compound was evaluated for antibacterial activity against Streptococcus pneumoniae type I.
For the next assay, the system named is Proteus vulgaris. The assay can be described thus: Compound was evaluated for antibacterial activity against Proteus vulgaris GN76.
The test system of assay [4] is Pseudomonas aeruginosa. The assay can be described thus: Compound was evaluated for antibacterial activity against Pseudomonas aeruginosa 9027.
In the next assay the test system is Klebsiella pneumoniae. The assay can be described thus: Compound was evaluated for antibacterial activity against Klebsiella pneumoniae NCTC 9632.
The subject of another assay is Streptococcus pyogenes. The assay can be described thus: Compound was evaluated for antibacterial activity against Streptococcus pyogenes A77.
The subject of assay [5] is Escherichia coli. Description: Compound was evaluated for antibacterial activity against Escherichia coli DC 0.
The subject of assay [6] is Staphylococcus aureus. The assay can be described thus: Compound was evaluated for antibacterial activity against Staphylococcus aureus C2379 (MRSA).
In assay [7] the test system is Pseudomonas aeruginosa. Description: Compound was evaluated for antibacterial activity against Pseudomonas aeruginosa 1771M.
For the next assay, the system named is Serratia marcescens. The assay can be described thus: Compound was evaluated for antibacterial activity against Serratia marcescens IFO 12648.
The test system of assay [8] is Escherichia coli. Description: Compound was evaluated for antibacterial activity against Escherichia coli DC 2.

Values after ≈ are worked out from the molar mass of the structure shown.

On to `CC(C)(O/N=C(\C(=O)N[C@@H]1C(=O)N2C(C(=O)[O-])=C(C[n+]3ccccc3)CS[C@H]12)c1csc(N)n1)C(=O)O` [CEFTAZIDIME], for which the minimal inhibitory concentration (MIC) (as a rule, the least concentration at which growth counts as inhibited) is 0.781 µg/mL (≈ 1.43 µM) against Pseudomonas aeruginosa [1]; 6.25 µg/mL (≈ 11.4 µM) in the assay with Staphylococcus aureus [2]; over 100 µg/mL in the assay with Enterobacter cloacae; over 100 µg/mL with Pseudomonas aeruginosa [3]; 0.195 µg/mL (≈ 0.357 µM) against Streptococcus pneumoniae; 0.049 µg/mL (≈ 0.0896 µM) in the assay on Proteus vulgaris. Besides, the minimum inhibitory concentration (MIC) turned out to be 3.12 µg/mL (≈ 5.72 µM) in the assay with Pseudomonas aeruginosa [4]; 0.049 µg/mL (≈ 0.0896 µM) against Klebsiella pneumoniae; 0.098 µg/mL (≈ 0.179 µM) with Streptococcus pyogenes; 0.195 µg/mL (≈ 0.357 µM) against Escherichia coli [5]; 50 µg/mL (≈ 91.5 µM) in the assay on Staphylococcus aureus [6]; 0.391 µg/mL (≈ 0.715 µM) against Pseudomonas aeruginosa [7]. Moreover, the MIC in the assay on Serratia marcescens and in the assay with Escherichia coli [8] was 0.098 µg/mL (≈ 0.179 µM) throughout.

For `CC(=O)N(O)CCO/N=C(\C(=O)N[C@@H]1C(=O)N2C(C(=O)[O-])=C(C[n+]3ccccc3)CS[C@H]12)c1csc(N)n1`, the minimum inhibitory concentration (MIC) against Pseudomonas aeruginosa [1] came to 0.781 µg/mL (≈ 1.39 µM); with Staphylococcus aureus [2], 3.12 µg/mL (≈ 5.56 µM); with Enterobacter cloacae it was 25 µg/mL (≈ 44.5 µM); in the assay on Pseudomonas aeruginosa [3] it was 25 µg/mL (≈ 44.5 µM); with Streptococcus pneumoniae, 0.049 µg/mL (≈ 0.0873 µM); in the assay on Proteus vulgaris it was 0.781 µg/mL (≈ 1.39 µM). In addition, the minimal inhibitory concentration (MIC) stood at 6.25 µg/mL (≈ 11.1 µM) in the assay with Pseudomonas aeruginosa [4]; 0.098 µg/mL (≈ 0.175 µM) in the assay with Klebsiella pneumoniae; 0.007 µg/mL (≈ 0.0125 µM) against Streptococcus pyogenes; 0.781 µg/mL (≈ 1.39 µM) in the assay on Escherichia coli [5]; 12.5 µg/mL (≈ 22.3 µM) against Staphylococcus aureus [6]; 0.391 µg/mL (≈ 0.696 µM) against Pseudomonas aeruginosa [7]. Moreover, the MIC came out at 0.391 µg/mL (≈ 0.696 µM) with Serratia marcescens and 0.195 µg/mL (≈ 0.347 µM) in the assay with Escherichia coli [8].

On to `CC(=O)N(O)CCO/N=C(\C(=O)N[C@@H]1C(=O)N2C(C(=O)[O-])=C(CSc3cccc4[n+]3CCN4)CS[C@H]12)c1csc(N)n1`, for which the minimal inhibitory concentration (MIC) against Pseudomonas aeruginosa [1] was 3.12 µg/mL (≈ 4.92 µM); in the assay with Staphylococcus aureus [2] it was 1.56 µg/mL (≈ 2.46 µM); in the assay on Enterobacter cloacae it was 50 µg/mL (≈ 78.8 µM); in the assay on Pseudomonas aeruginosa [3], 50 µg/mL (≈ 78.8 µM); against Streptococcus pneumoniae it was 0.025 µg/mL (≈ 0.0394 µM); in the assay with Proteus vulgaris it was 3.12 µg/mL (≈ 4.92 µM). Moreover, the minimum inhibitory concentration (MIC) came out at 12.5 µg/mL (≈ 19.7 µM) against Pseudomonas aeruginosa [4]; 0.025 µg/mL (≈ 0.0394 µM) in the assay with Klebsiella pneumoniae; 0.025 µg/mL (≈ 0.0394 µM) against Streptococcus pyogenes; 1.56 µg/mL (≈ 2.46 µM) in the assay on Escherichia coli [5]; 12.5 µg/mL (≈ 19.7 µM) in the assay with Staphylococcus aureus [6]; 3.12 µg/mL (≈ 4.92 µM) in the assay with Pseudomonas aeruginosa [7]. In addition, the MIC against Serratia marcescens stood at 3.12 µg/mL (≈ 4.92 µM); against Escherichia coli [8], 1.56 µg/mL (≈ 2.46 µM).

On to `CC(=O)N(O)CCO/N=C(\C(=O)N[C@@H]1C(=O)N2C(C(=O)O)=C(CSc3nc(C)c(CC(=O)O)s3)CS[C@H]12)c1csc(N)n1`, for which the minimum inhibitory concentration (MIC) in the assay on Pseudomonas aeruginosa [1] is 3.12 µg/mL (≈ 4.65 µM); in the assay on Staphylococcus aureus [2], 12.5 µg/mL (≈ 18.6 µM); against Enterobacter cloacae, 50 µg/mL (≈ 74.4 µM); with Pseudomonas aeruginosa [3], 50 µg/mL (≈ 74.4 µM); in the assay on Streptococcus pneumoniae, 0.049 µg/mL (≈ 0.0729 µM); in the assay with Proteus vulgaris it was 0.049 µg/mL (≈ 0.0729 µM). Besides, the MIC with Pseudomonas aeruginosa [4] was 12.5 µg/mL (≈ 18.6 µM); in the assay on Klebsiella pneumoniae, 0.098 µg/mL (≈ 0.146 µM); in the assay with Streptococcus pyogenes it was 0.013 µg/mL (≈ 0.0194 µM); in the assay on Escherichia coli [5], 0.781 µg/mL (≈ 1.16 µM); against Staphylococcus aureus [6] it was 100 µg/mL (≈ 149 µM); with Pseudomonas aeruginosa [7], 0.391 µg/mL (≈ 0.582 µM). Also, the MIC against Serratia marcescens amounted to 1.56 µg/mL (≈ 2.33 µM); in the assay on Escherichia coli [8], 0.098 µg/mL (≈ 0.146 µM).

For the compound `CC(=O)N(O)CCO/N=C(\C(=O)N[C@@H]1C(=O)N2C(C(=O)[O-])=C(C[n+]3ccc(CN(O)C(C)=O)cc3)CS[C@H]12)c1csc(N)n1`, the minimal inhibitory concentration (MIC) was 25 µg/mL (≈ 38.5 µM) in the assay on Pseudomonas aeruginosa [1]; 12.5 µg/mL (≈ 19.3 µM) against Staphylococcus aureus [2]; 50 µg/mL (≈ 77.1 µM) against Enterobacter cloacae; over 100 µg/mL in the assay on Pseudomonas aeruginosa [3]; 0.049 µg/mL (≈ 0.0755 µM) against Streptococcus pneumoniae; 6.25 µg/mL (≈ 9.63 µM) with Proteus vulgaris. The MIC in the assay with Pseudomonas aeruginosa [4] stood at 50 µg/mL (≈ 77.1 µM); against Klebsiella pneumoniae it was 0.781 µg/mL (≈ 1.2 µM); against Streptococcus pyogenes it was 0.007 µg/mL (≈ 0.0108 µM); against Escherichia coli [5] it was 12.5 µg/mL (≈ 19.3 µM); against Staphylococcus aureus [6] it was 50 µg/mL (≈ 77.1 µM); with Pseudomonas aeruginosa [7] it was 6.25 µg/mL (≈ 9.63 µM). For the same compound, the values for the minimal inhibitory concentration (MIC) against Serratia marcescens and against Escherichia coli [8] were 12.5 µg/mL (≈ 19.3 µM) and 0.391 µg/mL (≈ 0.603 µM), respectively.

With `CC(=O)N(O)CCO/N=C(\C(=O)N[C@@H]1C(=O)N2C(C(=O)[O-])=C(C[n+]3cccc4c3CCC4)CS[C@H]12)c1csc(N)n1`, the minimum inhibitory concentration (MIC) was 1.56 µg/mL (≈ 2.6 µM) in the assay with Pseudomonas aeruginosa [1]; 0.781 µg/mL (≈ 1.3 µM) with Staphylococcus aureus [2]; 25 µg/mL (≈ 41.6 µM) against Enterobacter cloacae; 50 µg/mL (≈ 83.1 µM) in the assay on Pseudomonas aeruginosa [3]; 0.025 µg/mL (≈ 0.0416 µM) in the assay on Streptococcus pneumoniae; 1.56 µg/mL (≈ 2.6 µM) in the assay with Proteus vulgaris. For the same compound, the minimal inhibitory concentration (MIC) in the assay with Pseudomonas aeruginosa [4] was 6.25 µg/mL (≈ 10.4 µM); with Klebsiella pneumoniae, 0.195 µg/mL (≈ 0.324 µM); in the assay on Streptococcus pyogenes it was 0.004 µg/mL (≈ 0.00665 µM); in the assay on Escherichia coli [5], 0.391 µg/mL (≈ 0.65 µM); against Staphylococcus aureus [6], 6.25 µg/mL (≈ 10.4 µM); against Pseudomonas aeruginosa [7], 0.781 µg/mL (≈ 1.3 µM). In addition, the minimal inhibitory concentration (MIC) amounted to 0.781 µg/mL (≈ 1.3 µM) against Serratia marcescens and 0.195 µg/mL (≈ 0.324 µM) in the assay with Escherichia coli [8].
